Results: patent EP0970046B1, “N-HYDROXY-2-(ALKYL, ARYL, OR HETEROARYL SULFANYL, SULFINYL OR SULFONYL)-3-SUBSTITUTED ALKYL, ARYL OR HETEROARYLAMIDES AS MATRIX METALLOPROTEINASE INHIBITORS” (Wyeth Holdings Corporation, priority 1997, dated 1998)

What was measured:
Format in all cases: biochemical
MMP 1 = biological target: T1, MMP 1 (Homo sapiens, UniProt P03956); assay: In Vitro Collagenase Assay; conditions: human recombinant fibroblast collagenase; for IC50: read-out: MMP 1 IC 50; for inhibition at 1 µM: read-out: MMP 1 % inhibition at 1 micromolar, 1 micromolar
T1 construct: human recombinant fibroblast collagenase (truncated, mw= 18,828, WAR, Radnor)
T1 sequence (P03956 100-269 limits assumed): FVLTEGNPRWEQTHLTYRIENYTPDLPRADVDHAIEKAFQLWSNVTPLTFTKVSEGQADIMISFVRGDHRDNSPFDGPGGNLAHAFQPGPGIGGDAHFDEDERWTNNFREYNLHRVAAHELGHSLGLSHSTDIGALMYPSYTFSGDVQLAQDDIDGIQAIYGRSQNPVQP
Method: The assay is based on the cleavage of a peptide substrate ((Dnp-Pro-Cha-Gly-Cys(Me)-His-Ala-Lys(NMa)-NH2), Peptide International, Inc.) by collagenase releasing the fluorescent NMa group which is quantitated on the fluorometer. Dnp quenches the NMa fluorescence in the intact substrate. […] Substrate is dissolved in methanol and stored frozen in 1 mM aliquots. […] For the assay, substrate is dissolved in HCBC buffer to a final concentration of 10 µM and collagenase to a final concentration of 5 nM. Compounds are dissolved in methanol, DMSO, or HCBC. The methanol and DMSO are diluted in HCBC to < 1.0%. Compounds are added to the 96 well plate containing enzyme and the reaction is started by the addition of substrate.
The slope of the line is calculated and represents the reaction rate.
The linearity of the reaction rate is confirmed (r^2 >0.85). The mean (x ± sem) of the control rate is calculated and compared for statistical significance (p <0.05) with drug-treated rates using Dunnett's multiple comparison test.

MMP 9 = biological target: T2, MMP 9 (Homo sapiens, UniProt P14780); assay: In Vitro Gelatinase Assay; conditions: human neutrophil gelatinase B; for IC50: read-out: MMP 9 IC 50; for inhibition at 1 µM: read-out: MMP 9 % inhibition at 1 micromolar, 1 micromolar
T2 construct: from tissue; host or cells: human neutrophils
T2 sequence (P14780 94-707): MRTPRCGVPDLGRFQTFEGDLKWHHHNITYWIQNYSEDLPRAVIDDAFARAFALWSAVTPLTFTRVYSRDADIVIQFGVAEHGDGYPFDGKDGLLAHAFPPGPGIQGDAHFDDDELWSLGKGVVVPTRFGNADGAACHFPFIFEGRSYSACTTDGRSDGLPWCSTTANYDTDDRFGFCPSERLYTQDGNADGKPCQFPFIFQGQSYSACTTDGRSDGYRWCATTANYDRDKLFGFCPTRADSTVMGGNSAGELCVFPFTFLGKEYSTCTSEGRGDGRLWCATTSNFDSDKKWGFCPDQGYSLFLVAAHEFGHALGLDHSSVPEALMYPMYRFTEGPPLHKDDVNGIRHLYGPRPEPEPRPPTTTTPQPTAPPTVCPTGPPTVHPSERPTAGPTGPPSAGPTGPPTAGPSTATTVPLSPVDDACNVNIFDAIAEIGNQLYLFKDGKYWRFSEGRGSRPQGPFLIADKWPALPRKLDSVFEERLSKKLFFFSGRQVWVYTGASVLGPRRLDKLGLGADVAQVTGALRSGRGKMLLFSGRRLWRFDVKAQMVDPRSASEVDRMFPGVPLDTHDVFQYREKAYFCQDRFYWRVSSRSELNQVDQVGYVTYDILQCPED
Method: The assay is based on the cleavage of the thiopeptide substrate ((Ac-Pro-Leu-Gly(2 mercapto-4 methyl-pentanoyl)-Leu-Gly-OEt), Bachem Bioscience) by the enzyme, gelatinase, releasing the substrate product which reacts colorimetrically with DTNB ((5,5'-dithio-bis(2-nitro-benzoic acid)). The enzyme activity is measured by the rate of the color increase. The thiopeptide substrate is made up fresh as a 20 mM stock in 100% DMSO and the DTNB is dissolved in 100% DMSO as a 100 mM stock and stored in dark at room temperature. Both the substrate and DTNB are diluted together to 1 mM with substrate buffer (50 mM HEPES pH 7.5, 5 mM CaCl2) before use. […] The increase in OD405 is plotted and the slope of the line is calculated which represents the reaction rate. The linearity of the reaction rate is confirmed (r^2 >0.85). The mean (x ± sem) of the control rate is calculated and compared for statistical significance (p <0.05) with drug-treated rates using Dunnett's multiple comparison test.

MMP 13 = MMP 13 (Homo sapiens, UniProt P45452); assay: MMP 13 inhibition (IC50 / manual assay; method not described); conditions: for IC50: read-out: MMP 13 IC 50; for inhibition at 1 µM: read-out: MMP 13 % inhibition at 1 micromolar
TACE = biological target: T3, TACE (Homo sapiens, UniProt P78536); assay: Procedure for Measuring TACE Inhibition; conditions: for IC50: read-out: TACE IC 50; for inhibition at 1 µM: read-out: TACE % inhibition at 1 micromolar
T3 construct: purchased Immunex
T3 sequence (P78536 215-824): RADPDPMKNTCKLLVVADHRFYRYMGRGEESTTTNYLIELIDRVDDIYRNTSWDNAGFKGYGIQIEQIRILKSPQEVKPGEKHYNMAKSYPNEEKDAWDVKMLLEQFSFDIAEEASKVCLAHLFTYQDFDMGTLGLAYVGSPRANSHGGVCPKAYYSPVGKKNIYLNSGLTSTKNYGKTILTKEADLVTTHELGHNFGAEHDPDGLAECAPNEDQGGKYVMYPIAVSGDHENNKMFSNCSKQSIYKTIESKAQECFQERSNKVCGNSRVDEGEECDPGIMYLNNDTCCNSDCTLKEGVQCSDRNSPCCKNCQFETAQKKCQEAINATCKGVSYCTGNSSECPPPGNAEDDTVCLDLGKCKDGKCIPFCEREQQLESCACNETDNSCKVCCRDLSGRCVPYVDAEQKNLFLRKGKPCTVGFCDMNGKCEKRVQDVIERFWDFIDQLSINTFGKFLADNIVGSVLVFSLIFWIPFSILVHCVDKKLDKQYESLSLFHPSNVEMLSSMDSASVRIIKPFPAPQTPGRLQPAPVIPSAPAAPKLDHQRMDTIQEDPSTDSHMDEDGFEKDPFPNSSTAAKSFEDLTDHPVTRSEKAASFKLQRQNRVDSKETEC
In short: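 Single-concentration screen: test compound at 1 µM final, 10-min room-temperature preincubation with 1 µg/mL protease in Tris pH 7.4 buffer containing glycerol. Initial rate from linear fluorescence increase (340/420 nm) over 10 min after adding 100 µM peptidyl substrate; significance versus control rate by Dunnett's test.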

Compound | IC50 (MMP 1) [µM] | IC50 (MMP 9) [µM] | IC50 (MMP 13) [µM] | IC50 (TACE) [µM] | inhibition at 1 µM (TACE) [%] | inhibition at 1 µM (MMP 1) [%] | inhibition at 1 µM (MMP 9) [%] | inhibition at 1 µM (MMP 13) [%]
COc1ccc(S(=O)(=O)C(C)(CCCCN2C(=O)c3ccccc3C2=O)C(=O)NO)cc1 (stereo not shown) [Example 31, 6-(1,3-Dioxo-1,3-dihydro-isoindol-2-yl)-2-(4-methoxy-benzenesulfonyl)-2-methyl - hexanoic acid hydroxyamide] | 0.162 | 0.0152 | 0.0057 | 0.688 |  |  |  | 
COc1ccc(S(=O)(=O)C(C)(Cc2cccc(OCCN3CCCCC3)c2)C(=O)NO)cc1 (stereo not shown) [Example 22, N-Hydroxy-2-(4-methoxy-benzenesulfonyl)-2-methyl-3-[3-(2-piperidin-1-yl-ethoxy)-phenyl]-propionamide] | 0.219 | 0.0032 | 0.0025 |  | 30 |  |  | 
CCCC(Cc1ccc(OCCN2CCCCCC2)cc1)(C(=O)NO)S(=O)(=O)c1ccc(OC)cc1 (stereo not shown) [Example 19, 2-[4-(2-Azepan-1-yl-ethoxy)-benzyl]-2-(4-methoxy-benzenesulfonyl)-pentanoic acid hydroxyamide] | 0.446 | 0.0958 | 0.0048 |  | 33.1 |  |  | 
CCCCC[C@@H](C(=O)NO)[S@@+]([O-])c1ccc(OC)cc1 (stereo in doubt) [Example 81b, 2S*-(4-methoxy-phenyl-R*- sulfinyl)-heptanoic acid hydroxyamide] | 3.77 | 0.154 | 0.0157 | 0.228 |  |  |  | 
COc1ccc(S(=O)(=O)C(C)(Cc2ccc(OCCCN3CCN(c4cccc(Cl)c4)CC3)cc2)C(=O)NO)cc1 (stereo not shown) [Example 23, 3-(4-{3-[4-(3-Chloro-phenyl)-piperazin-1-yl]-propoxy}-phenyl)-N-hydroxy-2-(4-methoxy-benzenesulfonyl)-2-methyl-propionamide] | 0.593 | 0.0079 | 0.004 |  | 40.6 |  |  | 
Cc1occc1S(=O)(=O)C(C)(Cc1ccc(OCCN2CCCCC2)cc1)C(=O)NO (stereo not shown) [Example 44, 2-Methyl-2-(2-methyl-furan-3-sulfonyl)-3-[4-(2-piperidin-1-yl-ethoxy)-phenyl]-propionic acid hydroxamide] |  |  |  |  | 14.9 | 47.1 | 36.9 | 39.5
CCCCCC#CCC(Cc1cccnc1)(C(=O)NO)S(=O)(=O)c1ccc(OC)cc1 (stereo not shown) [Example 74, 2-(4-Methoxy-benzenesulfonyl)-2-pyridin-3-ylmethyl-dec-4-ynoic acid hydroxyamide] | 0.138 | 0.0092 | 0.0043 |  | 47.9 |  |  | 
COc1ccc(S(=O)(=O)C(CCN(C(C)C)C(C)C)(Cc2ccccc2)C(=O)NO)cc1 (stereo not shown) [Example 64, 2-Benzyl-4-diisopropylamino-N-hydroxy-2-(4-methoxy-benzenesulfonyl)-butyramide] |  |  |  |  | 29.7 | 40.9 | 25.6 | 36.7
COc1ccc(S(=O)(=O)C(CCC(C)C)(Cc2cccnc2)C(=O)NO)cc1 (stereo not shown) [Example 69, 2-(4-Methoxy-benzenesulfonyl)-5-methyl-2-pyridin-3-ylmethyl-hexanoic acid hydroxyamide] | 0.575 |  | 0.09 |  | 41.3 |  |  | 
COc1ccc(S(=O)(=O)C(Cc2cccnc2)(CC2CCCCC2)C(=O)NO)cc1 (stereo not shown) [Example 65, 3-Cyclohexyl-N-hydroxy-2-(4-methoxy-benzenesulfonyl)-2-pyridin-3-ylmethyl-propionamide] | 1 | 0.063 | 0.013 |  | 42.2 |  |  | 
COc1ccc(S(=O)(=O)C2(C(=O)NO)CCN(C(C)(C)C)CC2)cc1 [Example 92, 1-Tert-butyl-4-(4-methoxy-benzenesulfonyl)-piperidine-4-carboxylic acid hydroxyamide] |  | 0.649 | 0.148 |  |  | 59.6 |  | 
CCCCC[C@H](C(=O)NO)[S@+]([O-])c1ccc(OC)cc1 (stereo in doubt) [Example 81a, 2R*-(4-methoxy-phenyl-S*- sulfinyl)-heptanoic acid hydroxyamide] | 2.04 | 0.231 | 0.0439 |  |  |  |  | 
COc1ccc(S(=O)(=O)C(C)(CC=C(C)C)C(=O)NO)cc1 (stereo not shown) [Example 13, 2-(4-Methoxy-benzenesulfonyl)-2,5-dimethyl-hex-4-enoic acid hydroxyamide] | 0.239 | 0.011 | 0.014 | 0.626 |  |  |  | 
COc1ccc(S(=O)(=O)C2(C(=O)NO)CCN(C(C)C)CC2)cc1 [Example 96, 1-Isopropyl-4-(4-methoxy-benzenesulfonyl)-piperidine-4-carboxylic acid hydroxyamide] | 4.44 | 0.374 | 0.0338 |  |  |  |  | 
COc1ccc(S(=O)(=O)C(C)(CC=C(C)CCC=C(C)C)C(=O)NO)cc1 (stereo not shown) [Example 15, 2-(4-methoxy-benzenesulfonyl)-2,5,9-trimethyl-deca-4,8-dienoic acid hydroxyamide] | 0.285 | 0.017 | 0.004 | 0.137 |  |  |  | 
CCCCC(Cc1ccc(OCCN(CC)CC)cc1)(C(=O)NO)S(=O)(=O)c1ccc(OC)cc1 (stereo not shown) [Example 27, 2-[4-(2-Diethylamino-ethoxy)-benzyl]-2-(4-methoxy-benzenesulfonyl)-hexanoic acid hydroxyamide] | 0.629 | 0.106 | 0.0301 |  |  |  |  | 
CCCC(Cc1ccc(OCCN2CCOCC2)cc1)(C(=O)NO)S(=O)(=O)c1ccc(OC)cc1 (stereo not shown) [Example 35, 2-(4-Methoxy-benzenesulfonyl)-2-[4-(2-morpholin-4-yl-ethoxy)-benzyl]-pentanoic acid hydroxyamide] | 0.456 | 0.234 | 0.0482 |  |  |  |  | 
CC(C(=O)O)S(=O)(=O)CCCCCCCCS(=O)(=O)C(C)C(=O)NO (stereo not shown) [Example 49, 2-[8-(1-carboxy-ethanesulfonyl)-octane-1-sulfonyl]-propionic acid hydroxyamide] |  |  |  |  |  | 10.1 | 23.7 | 54.6
CCN(CC)CCOc1ccc(CC(C)(C(=O)NO)S(=O)(=O)c2ccc(-c3ccco3)cc2)cc1 (stereo not shown) [Example 32, 3-[4-(2-Diethylamino-ethoxy)-phenyl]-2-(4-furan-2-yl-benzenesulfonyl)-N-hydroxy-2-methyl-propionamide] | 0.0137 | 0.0037 | 0.001 |  |  |  |  | 
CCCCCCC(Sc1nccn1C)C(=O)NO (stereo not shown) [Example 39, 2-(1-methyl-1H-imidazol-2-ylsulfanyl)-octanoic acid hydroxyamide] |  |  |  |  |  | 29.4 | 35.2 | 26.6
CC#CCC(Cc1cccnc1)(C(=O)NO)S(=O)(=O)c1ccc(F)cc1 (stereo not shown) [Example 76, 2-(4-Fluoro-benzenesulfonyl)-2-pyridin-3-ylmethyl-hex-4-ynoic acid hydroxyamide] | 0.805 |  | 0.5 |  |  |  |  | 
CCCCCCC(Sc1ccc(OC)cc1)C(=O)NO (stereo not shown) [Example 37, 2-(4-Methoxy-benzenesulfanyl)-octanoic acid hydroxyamide] |  |  |  |  |  | 9 | 31.6 | 14.3
COc1ccc(S(=O)(=O)C(CC=C(C)C)(Cc2ccc(OCCN3CCOCC3)cc2)C(=O)NO)cc1 (stereo not shown) [Example 24, 2-(4-Methoxy-benzenesulfonyl)-5-methyl-2-[4-(2-morpholin-4-yl-ethoxy)-benzyl]-hex-4-enoic acid hydroxyamide] | 0.413 | 0.0209 | 0.0313 |  |  |  |  | 
COc1ccc(S(=O)(=O)C(C/C=C(\C)CCC=C(C)C)(Cc2ccc(OCCN3CCOCC3)cc2)C(=O)NO)cc1 (stereo not shown) [Example 26, (4E)-2-(4-Methoxy-benzenesulfonyl)-5,9-dimethyl-2-[4-(2-morpholin-4-yl-ethoxy) - benzyl]-deca-4,8-dienoic acid hydroxyamide] | 0.305 | 0.0063 | 0.0032 |  |  |  |  | 
